According to US20150352026A1, “COMPOSITION FOR INCREASING OF THE EFFECTIVENESS OF UV-B THERAPY, PROCESS FOR THE PREPARATION THEREOF, AND ITS USE” (GLOBALDERM KOZMETOLÓGIAI KORLÁTOLT FELELÖSSÉGÜ TÁRSASÁG, priority 2013, published 2015):

Experiment: Optical transmittance spectrum (Helios spectrophotometer, 200-600 nm)
Assay type: physicochemical
Conditions: sharp decrease around 300 nm, below this value
Procedure: Furthermore, a sharp decrease of transmittance was detectable around 300 nm wavelength and it fell to zero below this value.
Compositions suitable for therapeutic purposes were selected by the measurement of optical transmittance. Measurements were performed using a Helios a spectrophotometer in the wavelength range of 200-600 nm. FIGS. […] and 2 show optical transmittance spectra of Macrogol 400 and the spray formulation of the composition, respectively. FIG. 3 illustrates the optical transmittance spectrum of the gel formulation of the composition.

**Q.** For `O=C(O)c1cccnc1` [nicotinic acid], which “transmittance around and below 300 nm wavelength” value is on record?
**A.** Its value is “more pronounced”.
